Results reported in patent US8426406B2, “Glucocorticoid receptor agonist comprising 2,2,4-trimethyl-6-phenyl-1,2-dihydroquinoline derivatives having substituted oxy group” (Santen Pharmaceutical Co., Ltd., priority 2008, dated 2013).

Tests used:
[1] = test system: atopic dermatitis model in mice; experiment: Inhibitory effect test on the vascular hyper-permeability in the atopic dermatitis model; format: in vivo; settings: DNFB, 1% (W/W) test compound ointment on ears, 21 times in total, dye leakage vs vehicle, 12 ears in 6 animals
Procedure: In order to evaluate the effects in atopic dermatitis of the present compound, the inhibitory effects of test compound on the vascular hyper-permeability in the atopic dermatitis model in mice were investigated. Procedure of atopic dermatitis model and estimation method was used according to the method of Nagai et al. (J. Pharmacol. Exp. Ther., 283: 321-327 (1997)) with modification. The inhibitory effects were calculated based on dye leakage in vehicle-treated group (control) and test compound-treated group.
The test compound was mixed with white petrolatum, whereby a 1% (W/W) test compound ointment was prepared.
1) Mice were challenged by topical instillation of 25 μL of 0.15% DNFB solution on both sides of both ears once a week for 5 weeks.
2) Test compounds were administered by topical instillation of 25 μL ointments on each side of both ears five times a week from the previous day of the 1st DNFB painting to the previous day of 5th DNFB painting, 21 times in total. Mice were painted with the test compound ointment onto the ear, 25 μL to the inner and 25 μL to outer side. In vehicle-treated group (control group), white petrolatum was administered by topical instillation in the same way.
3) Dyes, a solution of 0.2% Evans blue, were administered to mice intravenously just after the 5th DNFB painting. Ear tissues were removed 2 hours after the intravenous injection of dyes. Then each removed tissue was put into dye extract and dye was extracted. The absorbance of each extract was determined with a spectrophotometer. The amount of dye leakage was calculated from obtained absorbance. The inhibition ratio of the vascular hyper-permeability associated with atopic dermatitis of test compound-treatment group was calculated according to the following equation 1. The inhibition ratio of the vascular hyper-permeability of test compound-treatment group(%)=(1−Ax/Ao)×100 (Calculation Equation 1) Ao: the amount of dye leakage in vehicle-treated group (Control) Ax: the amount of dye leakage in test compound-treated group (Result and Discussion)

[2] = test system: corneal disorder model in rats; experiment: Test for therapeutic effects on corneal disorder (corneal disorder model associated with dry eye); format: in vivo; settings: male SD rats, exorbital lacrimal gland removed; 0.03% (W/V) ophthalmic suspension instilled 6 times a day for 14 days; fluorescein staining score; 8 eyes in 4 animals
Procedure: In order to evaluate the improvement effect of corneal disorder with dry eye of the present compounds, using male SD rats, corneal disorder models were produced according to the method of Fujihara et al. (Invest. Ophthalmol. Vis. Sci. 42 (1): 96-100 (2001)). After the production of the corneal disorder models, the improvement ratio of the corneal disorder was assessed according to the method of Murakami et al. (Journal of the eye 21 (1): 87-90 (2004)).
A 0.03% (W/V) test compound ophthalmic suspension was prepared by adding vehicle containing polysorbate 80 and the general additives to test compound.
1) Male SD rats were systemically anesthetized by an administration of Somnopentyl. Subsequently the exorbital lacrimal gland of each rat was removed and a corneal damage was induced over a period of 2 months.
2) The test compound ophthalmic suspension was instilled into both eyes 6 times a day for 14 days. In a control group, vehicle was instilled in the same way.
3) Fourteen days after the start of instillation, the damaged parts of the cornea were stained with fluorescein. For each of the upper, middle and lower parts of the cornea, the degree of fluorescein staining was evaluated by scoring according to the criteria shown below and the mean value of the total scores for each of the above-mentioned parts was calculated. The score range in each divided section is 0 to 3 and the minimum score unit is 0.5. 0.5 was provided as an intermediate value between each score 0, 1, 2, 3.
1: Scattered staining (each punctate staining being separated)
2: Moderate staining (a part of punctate staining being adjacent)
3: Heavy staining (each punctate staining being adjacent) Improvement ratio of test compound instillation group(%)=(Ao−Ax)/(Ao−An)×100 (Calculation Equation)
Ao: the mean value of corneal disorder score in vehicle instilled (control) group
Ax: the mean value of corneal disorder score in test compound instilled group
An: the mean value of corneal disorder score in normal rat group.

[3] = test system: IL-6 production induced by lipopolysaccharide (LPS) in human corneal epithelial cells; experiment: Evaluation test for GR agonist activity: inhibition of LPS-induced IL-6 production in human corneal epithelial cells (HCE-T); format: cell-based; settings: Corneal epithelial cell, 10 μL of 100 μM test compound solution per well, 4 hours incubation, efficacy relative to DEX
In short: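 SV40-immortalized HCE-T cells were treated with test compound (100 μM solution, stock before dilution into well) plus LPS (1 μg/mL solution, likewise pre-dilution) for 4 hours in 10% FBS-DMEM/F12. IL-6 in supernatants was measured by HTRF. Inhibition was calculated relative to LPS-plus-DMSO and no-LPS controls, and efficacy was expressed as % of DEX inhibition.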

| Structure (SMILES) | Inhibition ratio of the vascular hyper-permeability (%) [1] [%] | Improvement ratio of corneal disorder (%) [2] [%] | Emax [3] [%] |
| --- | --- | --- | --- |
| COc1cc(OC(=O)c2cccnc2)ccc1-c1ccc2c(c1COc1cc([N+](=O)[O-])ccc1C)C(C)=CC(C)(C)N2 [Compound 1-72, 6-[2-Methoxy-4-(pyridin-3-ylcarbonyloxy)phenyl]-5-(2-methyl-5-nitrophenoxymethyl)-2,2,4-trimethyl-1,2-dihydroquinoline] | 15 | 67 | 82 |
| CCCS(=O)(=O)Oc1ccc(-c2ccc3c(c2CNc2ccccc2OC)C(C)=CC(C)(C)N3)c(OC)c1 [Compound 4-18, 5-(2-Methoxyphenylaminomethyl)-6-(2-methoxy-4-propylsulfonyloxyphenyl)-2,2,4-trimethyl-1,2-dihydroquinoline] | 30 | 56 | 89 |
| COc1cc(OC(=O)c2ccsc2)ccc1-c1ccc2c(c1COc1cc(F)ccc1C)C(C)=CC(C)(C)N2 [Compound 1-12, 5-(5-Fluoro-2-methylphenoxymethyl)-6-[2-methoxy-4-(thiophen-3-ylcarbonyloxy)phenyl]-2,2,4-trimethyl-1,2-dihydroquinoline] | 22 | 69 | 85 |
| COc1cc(OC(=O)c2ccco2)ccc1-c1ccc2c(c1COc1cc(F)ccc1C)C(C)=CC(C)(C)N2 [Compound 1-13, 5-(5-Fluoro-2-methylphenoxymethyl)-6-[4-(furan-2-ylcarbonyloxy)-2-methoxyphenyl]-2,2,4-trimethyl-1,2-dihydroquinoline] | 13 | 61 | 94 |
